Legend:
[1] = Flash point, closed-cup apparatus, ASTM-D3278; assay type: physicochemical
Text: The flash point may be determined using a closed-cup apparatus in accordance with the standard ASTM-D3278.

[2] = Vapour pressure by ebulliometry, ASTM-E1719; assay type: physicochemical
Text: The vapour pressure may be determined by ebulliometry in accordance with the standard ASTM-E1719.

[3] = Specific gravity by hydrometer, ASTM-D891; assay type: physicochemical
Text: The specific gravity may be determined by means of a hydrometer in accordance with the standard ASTM-D891.

[4] = Solubility in water by coulometric Karl Fischer titration, ASTM-D6304; assay type: physicochemical
Text: The solubility in water may be determined by coulometric Karl Fischer titration in accordance with the standard ASTM-D6304.

[5] = Solubility of 2-ethyltetrahydroanthrahydroquinone in tested solvents (protocol of the patent); conditions: 2-THEAHQ dissolved in the tested lactone solvent; hydrogenation of parent quinone, cooled until precipitation, liquid chromatography
Method: In the following examples, the solubilities of 2-ethyltetrahydroanthrahydroquinone (2-THEAHQ) were tested in different solvents in accordance with the protocols detailed below.
For 2-ethyltetrahydroanthrahydroquinone, the solubilities were determined by dissolving a weighed amount of the parent quinone in the tested solvent. After the addition of a Pd-based catalyst to the solution, the mixture was hydrogenated until hydrogen absorption ceases, and then cooled until precipitation occurs.
The samples were analysed by liquid chromatography. Reference mixtures were prepared for calibration.

Row | Compound | Flash point (° C.) [1] | Vapour pressure (Pa) [2] | Specific gravity [3] | Solubility in water [4] | Solubility of 2-THEAHQ [5] | Solubility in water (mg/kg) [4]
1 | CCCCCCCC1CCCC(=O)O1 (stereo not drawn) [δ-dodecalactone] | 168 °C | 0.05 Pa | 0.962 | 1113 mg/kg | 276 mg/mL | 
2 | CCCCC1CCC(=O)O1 (stereo not drawn) [γ-octalactone] |  |  |  |  | 281 mg/mL | 
3 | CC1CC(=O)O1 (stereo not drawn) [β-butyrolactone] | 74 °C | 212 Pa | 1.076 |  |  | 158.9 10^3 mg/kg
4 | O=C1CCCO1 [γ-butyrolactone] | 97 °C | 87 Pa | 1.136 |  |  | 484.3 10^3 mg/kg
5 | O=C1CCO1 [β-propiolactone] | 70 °C | 418 Pa | 1.137 |  | 70 mg/mL | 
